# Columns and labels:
# human SCD-1 = molecular target: T1, human SCD-1 (Homo sapiens, UniProt O00767); assay: Inhibition of SCD-1 activity in human liver microsomes (13C-stearoyl-CoA to 13C-oleoyl-CoA, LC/MS/MS); format: biochemical; details: FIG. 1, IC50 value not given
# T1 construct: human liver microsome (HLM, InVitroCYP™ H-class, Pool of 25 donors BiolVT); tissue BiolVT InVitroCYP™ H-class; host or cells: human liver microsomes, pool of 25 donors
# T1 sequence (O00767 1-359): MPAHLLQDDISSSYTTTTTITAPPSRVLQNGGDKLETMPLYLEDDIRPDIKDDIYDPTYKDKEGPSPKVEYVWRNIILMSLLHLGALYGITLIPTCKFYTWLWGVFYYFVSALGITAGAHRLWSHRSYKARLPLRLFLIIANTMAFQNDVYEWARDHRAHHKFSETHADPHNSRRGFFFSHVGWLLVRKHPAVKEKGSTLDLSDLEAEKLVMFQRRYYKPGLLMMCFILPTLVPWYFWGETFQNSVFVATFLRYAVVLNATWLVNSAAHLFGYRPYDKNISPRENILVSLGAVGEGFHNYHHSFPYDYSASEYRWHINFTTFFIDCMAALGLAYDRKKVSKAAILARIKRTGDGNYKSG
# Description: (§1) The ability of the compound to inhibit isolated SCD-1 enzyme activity can be evaluated in rat and human microsomes as described below (Oncotarget (2018), 9, 3-20). The compound is added as various concentrations to the liver microsomes and incubated for 5 minutes with ^13C-labelled Stearoyl CoA, which is the substrate for SCD-1. The activity of SCD-1 is then determined by the conversion of ^13C-Steoryl CoA to ^13C-Oleoyl CoA using an LC/MS/MS method. The ability of the compound to inhibit SCD-1 activity is expressed as an IC50.
# (§2) Compound 25 is dissolved in DMSO to prepare a 10 mM stock solution.
# (§3) Rat liver microsomes (RLM, BiolVT) and human liver microsome (HLM, InVitroCYP™ H-class, Pool of 25 donors BiolVT) solutions are prepared by adding the microsomes to 100 mM sodium phosphate, pH 7.4, at a protein concentration of 1.00 mg/mL.
# (§4) Compound 25 stock solution is then added to the RLM and HLM solution at an initial concentration of 0.2 μM for direct inhibition. Each LM/Inhibitor Solution is added to blank LM solution to give 8 concentrations prepared by a 3-fold serial dilution. These diluted LM/inhibitor solutions are then added to a reaction buffer containing 2 mM NADH, 120 μM Coenzyme A, 2 mM ATP, 2 mM DTT, and 10 mM MgCl2 in 100 mM sodium phosphate, pH 7.4.
# (§5) A Stearoyl-^13Cis-CoA solution in 10% methanol in water is prepared at a final concentration of 3.00 mM. […]
# [1] = system: diet-induced and biopsy-confirmed mouse model of NASH; assay: Liver histology (NAS, fibrosis stage, quantitative histomorphometry) in GAN diet-induced, biopsy-confirmed mouse model of NASH; format: in vivo, mice; details: for number of mice with worsening (higher score) of Fibrosis Stage: placebo gel 7/16; for liver content (in mg) of α-SMA, antibody-stained sections / liver Galectin-3 content (in mg), antibody-stained sections / liver lipid content (hematoxylin and eosin-stained sections): week 12; for number of animals experiencing an improvement in NAS: topical, p<0.05 compared to placebo
# Description: (§6) The effects of topical treatment of Compound 25 to 10% of the skin for 12 weeks were assessed in a diet-induced and biopsy-confirmed mouse model of NASH described in the literature (World Journal of Gastroenterology (2019), 25(33), 4904-4920). In this model, NASH is induced by maintaining mice on a high fat-high fructose diet (the so-called GAN [Novel Gubra Amylin] diet) for 33 weeks prior to drug administration. […] This biopsy is then compared to a post-drug treatment biopsy to assess changes in NAFLD activity and Fibrosis Stage. Qualitative scoring is completed with quantitative immunohistochemistry to assess effects on hepatic steatosis, inflammation (Galectin-3), fibrosis (Collagen 1a1 and Picro-Sirius Red Staining) and stellate cell activation (α-SMA). RNASeq was also performed on terminal liver samples from mice treated with placebo gel and compound 25 gel to examine key candidate genes involved in extracellular matrix formation (ECM) and fibrogenesis. Parametric (ANOVA) and non-parametric (Fisher's or Chi Square) statistics were used to analyze the data as appropriate.
# (§7) SCD-1 inhibitor compounds can be tested in vivo in a rodent diet-induced model of biopsy-confirmed NASH. In this experiment, the NASH phenotype is induced by maintaining mice upon a GAN diet for 33 weeks prior to drug administration (BMC Gastroenterology (2020), 20(1), 210; World Journal of Gastroenterology (2019), 25(33), 4904-4920). A biopsy is performed prior to drug treatment to eliminate any mice that have not developed the NASH phenotype and to mirror clinical trial design where liver biopsies prior to and at the end of treatment are compared. In addition to pre- and post-treatment histological analyses, metabolic assessments such as body weight, body composition, food intake and clinical chemistries are measured during and following the 12-week study dosing period.
# (§8) Mice were dosed topically to 10% of the total BSA of the skin with either a placebo gel or a gel containing compound 25 (at a concentration of 0.05%, 0.25%, 0.75%, or 2.5%). (World Journal of Gastroenterology (2018), 24(2), 179-194).
# (§9) Animals and Diet: The Danish Animal Experiments Inspectorate approved all experiments which were conducted using internationally accepted principles for the use of laboratory animals under the personal license #2013-15-2934-00784. B6.V-Lepob/JRj (ob/ob) mice (6 weeks old) were from Janvier Labs (Le Genest Saint Isle, France) and housed in a controlled environment (12h light/dark cycle, lights on at 3 AM, 21+2° C., humidity 50+10%). Each animal was identified by an implantable subcutaneous microchip (PetID Microchip, E-vet, Haderslev, Denmark). Mice had ad libitum access to tap water and the Gubra Amylin NASH diet [GAN diet; 40 kcal-% fat (of these 0% trans-fat and 46% saturated fatty acids by weight), 22% fructose, 10% sucrose, 2% cholesterol; D09100310, Research Diets]. Mice were maintained on the GAN diet for 33 weeks prior to study initiation to induce NASH and remained on the GAN diet during the 12 weeks of drug administration. Mice were weighed daily during the study and body composition was measured by non-invasive EchoMRI scanning using EchoMRI-900 (EchoMRI, Houston, TX).
# Liver Biopsy: After 33 weeks of GAN diet feeding, mice were anesthetized with isoflurane (2%-3%, in 100% oxygen), a small abdominal incision in the midline was made, and the left lateral lobe of the liver was exposed. A cone-shaped wedge of liver tissue (50-100 mg) was excised from the distal part of the lobe. The cut surface of the liver was closed by electrosurgical bipolar coagulation using an electrosurgical unit (ERBE VIO® 100C, ERBE, Marietta, GA, United States). The liver was returned to the abdominal cavity, the abdominal wall was sutured and skin stapled. Carprofen (5 mg/kg, i.p.) was administered at the time of surgery and at post-operative day one and two. […]
# [2] = system: diet-induced and biopsy-confirmed mouse model of NASH; assay: Terminal hepatic triglyceride content in mouse model of NASH; format: in vivo, mice; details: 2.5% gel, week 12; p<0.001
# Description: as §7, §8
# Animals and Diet: The Danish Animal Experiments Inspectorate approved all experiments which were conducted using internationally accepted principles for the use of laboratory animals under the personal license #2013-15-2934-00784. […] Mice were weighed daily during the study and body composition was measured by non-invasive EchoMRI scanning using EchoMRI-900 (EchoMRI, Houston, TX). […]
# [3] = system: liver genes involved in inflammation, fibrogenesis, extracellular matrix formation and NASH progression; assay: RNASeq of terminal liver samples (mRNA expression) in mouse model of NASH; format: in vivo, mice
# Description: as §6, §7, §8, §9
# [4] = system: diet-induced and biopsy-confirmed mouse model of NASH; assay: Plasma ALT and AST in mouse model of NASH; format: in vivo, mice; details: for plasma alanine transaminase (ALT) (units/L) / plasma aspartate transaminase (AST) (units/L): week 12
# Description: as §7, §8, §9
# Plasma Biochemistry Analysis: Blood samples are collected in heparinized tubes and plasma is separated and stored at −80° C. until analysis. Alanine aminotransferase and aspartate aminotransferase (FIG. 12) were measured using commercial kits (Roche Diagnostics) on the Cobas c 501 autoanalyzer according to the manufacturer's instructions.
# rat SCD-1 = molecular target: T2, rat SCD-1 (Rattus norvegicus, UniProt P07308); assay: Inhibition of SCD-1 activity in rat liver microsomes (13C-stearoyl-CoA to 13C-oleoyl-CoA, LC/MS/MS); format: biochemical; details: FIG. 1, IC50 value not given
# T2 construct: Rat liver microsomes (RLM, BiolVT); tissue BiolVT; host or cells: rat liver microsomes
# T2 sequence (P07308 1-358): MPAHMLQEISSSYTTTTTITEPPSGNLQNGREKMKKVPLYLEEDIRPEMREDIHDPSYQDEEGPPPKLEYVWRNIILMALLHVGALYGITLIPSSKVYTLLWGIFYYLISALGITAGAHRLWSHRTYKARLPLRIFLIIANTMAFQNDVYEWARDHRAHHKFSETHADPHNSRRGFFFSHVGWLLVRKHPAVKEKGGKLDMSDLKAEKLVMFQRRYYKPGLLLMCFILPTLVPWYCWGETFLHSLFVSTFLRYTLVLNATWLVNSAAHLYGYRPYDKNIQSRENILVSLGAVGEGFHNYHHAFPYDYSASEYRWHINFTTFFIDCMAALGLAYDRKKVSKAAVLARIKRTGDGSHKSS
# Description: as §1, §2, §3, §4, §5
# [5] = Body weight and body composition (EchoMRI) in GAN diet-induced, biopsy-confirmed mouse model of NASH; format: in vivo, mice; details: 12 weeks
# Description: as §6
# as §7, with “A biopsy is performed prior to drug treatment to eliminate any mice that have not developed the NASH phenotype and to mirror clinical trial design where liver biopsies prior to and at the end of treatment are compared.” left out, “period. […]” for “period.”
# Animals and Diet: The Danish Animal Experiments Inspectorate approved all experiments which were conducted using internationally accepted principles for the use of laboratory animals under the personal license #2013-15-2934-00784. […] Mice were weighed daily during the study and body composition was measured by non-invasive EchoMRI scanning using EchoMRI-900 (EchoMRI, Houston, TX).
# [6] = 0.75% and 2.5% dose groups (group not specified), 16 animals per group, 12 weeks
# [7] = conclusion, topical to 10% of BSA, dose not specified
# [8] = 2.5% gel, topical to 10% of skin, p<0.001
smiles,measurement,setting,value
"O=C(COc1ccc(CO)cc1)N1CC[C@H](Oc2ccccc2C(F)(F)F)C1 [Compound 25, (S)-2-(4-(hydroxymethyl)phenoxy)-1-(3-(2-(trifluoromethyl)phenoxy)pyrrolidin-1-yl)ethan-1-one]",inhibition of human SCD-1 activity,human SCD-1,concentration-dependent inhibition
same,number of mice with worsening (higher score) of Fibrosis Stage,"[1]; 0.25% gel, 12 weeks",2/16
same,"liver content (in mg) of α-SMA, antibody-stained sections","[1]; 0.25% gel, p<0.05",significantly reduced
same,proportion of mice exhibiting any worsening of the fibrosis stage,"[1]; 0.25%, 0.75% and 2.5% gel groups, 12 weeks, placebo almost 50%",6-12%
same,animals showing a higher NAS score,[1]; [6],none
same,animals with a lower NAS score,[1]; [6],15/16
same,"liver content of Collagen 1a1 (in mg), antibody-stained sections","[1]; 0.75% gel, 12 weeks, p<0.05",significant reduction
same,liver content of Picro-Sirius Red (in mg),"[1]; 0.75% gel, 12 weeks, p<0.05",significantly reduced
same,number of mice with worsening (higher score) of Fibrosis Stage,"[1]; 0.75% gel, 12 weeks",2/16
same,number of animals experiencing an improvement in NAS,"[1]; 0.75% gel, 12 weeks",significantly greater
same,"liver content (in mg) of α-SMA, antibody-stained sections","[1]; 0.75% gel, p<0.01",significantly reduced
same,"liver Galectin-3 content (in mg), antibody-stained sections","[1]; 0.75% gel, p<0.05",significantly reduced
same,liver lipid content (hematoxylin and eosin-stained sections),"[1]; 0.75% gel, p<0.05",significantly reduced
same,liver content of Picro-Sirius Red (in mg),"[1]; 2.5% gel, 12 weeks, p<0.001",significantly reduced
same,"liver content of Collagen 1a1 (in mg), antibody-stained sections","[1]; 2.5% gel, 12 weeks, p<0.01",significant reduction
same,number of mice with worsening (higher score) of Fibrosis Stage,"[1]; 2.5% gel, 12 weeks",1/16
same,number of animals experiencing an improvement in NAS,"[1]; 2.5% gel, 12 weeks",significantly greater
same,"liver Galectin-3 content (in mg), antibody-stained sections","[1]; 2.5% gel, p<0.001",significantly reduced
same,"liver content (in mg) of α-SMA, antibody-stained sections","[1]; 2.5% gel, p<0.001",significantly reduced
same,liver lipid content (hematoxylin and eosin-stained sections),"[1]; 2.5% gel, p<0.001",significantly reduced
same,"liver content of Collagen 1a1 (in mg), antibody-stained sections","[1]; all doses (0.05%, 0.25%, 0.75%, 2.5% gel), 12 weeks",clear trend in reduction
same,"multiple quantitative markers of collagen (Collagen 1a1 immunohistochemistry; PSR staining; Collagen 1a1, 3a1, 4a1 mRNA)","[1]; conclusion, dose not specified",decreased
same,α-SMA expression (stellate cell activation),"[1]; conclusion, dose not specified",decreased
same,fibrosis stage,[1]; [7],prevented worsening
same,hepatic steatosis,[1]; [7],improved
same,inflammation,[1]; [7],decreased
same,overall NAFLD Activity Score or NAS,[1]; [7],improved
same,liver triglyceride content,[2],significantly reduced
same,liver Galectin-3 mRNA,[3]; 2.5% gel,Reduced
same,liver mRNA expression of genes associated with NASH progression and poor prognosis,"[3]; 2.5% gel, Aldh8a1, Aldh7a1, Annexin A2, CD36, CNBP, CIDEC, Cyclin D1, Fasn, Hsbp1, KIF6, Nfe212, Perilipin 2",significant regulation
same,liver mRNA expression of genes involved in hepatic inflammation,"[3]; 2.5% gel, Chemokine Ligand 2, Chemokine Ligand 5, Epithelial Cell Adhesion Protein, Cluster of Differentiation 68, Integrin X",significantly downregulated
same,liver mRNA expression of genes involved in NASH fibrogenesis and extracellular matrix formation,"[3]; 2.5% gel, Monocyte Chemoattractant Protein-1, Osteonectin, α-SMA, Collagen 1a1, Collagen 3a1, Collagen 4a1",significantly downregulated
same,candidate genes whose expression may be predictive for poor outcomes like liver cirrhosis and cancer,"[3]; conclusion, dose not specified",favorably regulated
same,plasma alanine transaminase (ALT) (units/L),[4]; 0.75% gel,reduction
same,plasma aspartate transaminase (AST) (units/L),[4]; 0.75% gel,reduction
same,plasma alanine transaminase (ALT) (units/L),[4]; 2.5% gel,reduction
same,plasma aspartate transaminase (AST) (units/L),[4]; 2.5% gel,reduction
same,serum ALT and AST,"[4]; conclusion, after topical dosing, dose not specified",marked decrease
same,inhibition of rat SCD-1 activity,rat SCD-1,concentration-dependent inhibition
same,body adiposity (percent body weight),[5]; [8],significantly reduced
same,body weight (percent baseline body weight),[5]; [8],significantly reduced
same,total body weight or body fat,"[5]; lower doses at which fibrosis changes were observed, topical",no or minimal effect
